What was measured:
Cavia porcellus = species on record: Cavia porcellus; assay: Effective concentration required to produce mechanical response determined in muscle strips of guinea pig; format: functional; conditions: Muscle tissue, read-out: Log 1/EC50 (converted)
[1] = Compound was tested for its antagonist activity against calcium channel; format: functional, Homo sapiens

SMILES	EC50 (Cavia porcellus) [µM]	Log 1/IC50 [1]
COC(=O)C1=C(C)N=C(C)/C(=C(\O)OC)C1c1cccc(Cl)c1Cl (stereo not drawn)	0.0191	
CCOc1ccccc1C1C(C(=O)OC)=C(C)N=C(C)/C1=C(\O)OC (stereo not drawn)	0.11	
COC(=O)C1=C(C)N=C(C)/C(=C(\O)OC)C1c1c(Cl)cccc1Cl (stereo not drawn)	0.00191	
COC(=O)C1=C(C)N=C(C)/C(=C(\O)OC)C1c1ccccc1F (stereo not drawn)	0.0427	8.44
COC(=O)C1=C(C)N=C(C)/C(=C(\O)OC)C1c1cccc(N)c1 (stereo not drawn)	2	
COC(=O)C1=C(C)N=C(C)/C(=C(/O)OC)C1c1c(F)cccc1Cl (stereo not drawn)	0.00759	8.37
COC(=O)C1=C(C)N=C(C)/C(=C(\O)OC)C1c1ccc(Cl)cc1 (stereo not drawn)	8.13	6.22
COC(=O)C1=C(C)N=C(C)/C(=C(\O)OC)C1c1cccc(N(C)C)c1 (stereo not drawn)	0.891	
COC(=O)C1=C(C)N=C(C)/C(=C(\O)OC)C1c1ccc(C#N)cc1 (stereo not drawn)	3.47	
COC(=O)C1=C(C)N=C(C)/C(=C(\O)OC)C1c1ccccc1C (stereo not drawn)	0.00603	8.71
COC(=O)C1=C(C)N=C(C)/C(=C(\O)OC)C1c1cc([N+](=O)[O-])ccc1Cl (stereo not drawn)	0.0302	
COC(=O)C1=C(C)N=C(C)/C(=C(\O)OC)C1c1cccc(OC)c1 (stereo not drawn)	0.191	7.27
COC(=O)C1=C(C)N=C(C)/C(=C(\O)OC)C1c1cccc(F)c1 (stereo not drawn)	0.0209	8.49
COC(=O)C1=C(C)N=C(C)/C(=C(\O)OC)C1c1cc(C)ccc1C (stereo not drawn)	0.1	
COC(=O)C1=C(C)N=C(C)/C(=C(\O)OC)C1c1cc([N+](=O)[O-])ccc1O (stereo not drawn)	0.1	
COC(=O)C1=C(C)N=C(C)/C(=C(/O)OC)C1c1cccc(Cl)c1 (stereo not drawn)	0.0158	9.3
COC(=O)C1=C(C)N=C(C)/C(=C(\O)OC)C1c1cccc(OC(=O)c2ccccc2)c1 (stereo not drawn)	6.31	
C=Cc1ccccc1C1C(C(=O)OC)=C(C)N=C(C)/C1=C(\O)OC (stereo not drawn)	0.00447	
COC(=O)C1=C(C)N=C(C)/C(=C(\O)OC)C1c1cccc(C(F)(F)F)c1 (stereo not drawn)	0.0741	
COC(=O)C1=C(C)N=C(C)/C(=C(\O)OC)C1c1ccccc1OC (stereo not drawn)	0.0575	7.87
COC(=O)C1=C(C)N=C(C)/C(=C(\O)OC)C1c1ccc(C)cc1 (stereo not drawn)		7.18
COC(=O)C1=C(C)NC(C)=C(C(=O)OC)C1c1ccccc1[N+](=O)[O-] [NIFEDIPINE]	0.00513	9.08
COC(=O)C1=C(C)N=C(C)/C(=C(\O)OC)C1c1ccccc1N (stereo not drawn)	39.8	
COC(=O)C1=C(C)N=C(C)/C(=C(\O)OC)C1c1ccccc1I (stereo not drawn)	0.0468	10.8
COC(=O)C1=C(C)NC(C)=C(C(=O)OC)C1c1ccccc1	0.0282	7.85

Results, then the compound that gave them:

EC50 (Cavia porcellus) [µM]	Log 1/IC50 [1]	SMILES
1		COC(=O)C1=C(C)N=C(C)/C(=C(\O)OC)C1c1cccc(O)c1 (stereo not drawn)
50.1	< 5	COC(=O)C1=C(C)N=C(C)/C(=C(\O)OC)C1c1cccc([N+](C)(C)C)c1 (stereo not drawn)
22.9		COC(=O)C1=C(C)N=C(C)/C(=C(\O)OC)C1c1ccc(I)cc1 (stereo not drawn)
0.00759	10.49	COC(=O)C1=C(C)N=C(C)/C(=C(\O)OC)C1c1ccccc1Br (stereo not drawn)
0.11	7.28	COC(=O)C1=C(C)N=C(C)/C(=C(\O)OC)C1c1cccc(C)c1 (stereo not drawn)
0.00129		COC(=O)C1=C(C)N=C(C)/C(=C(\O)OC)C1c1cccc(Br)c1 (stereo not drawn)
0.129	7.46	COC(=O)C1=C(C)N=C(C)/C(=C(\O)OC)C1c1ccc(F)cc1 (stereo not drawn)
6.03		COC(=O)C1=C(C)N=C(C)/C(=C(\O)OC)C1c1cccc(OC(C)=O)c1 (stereo not drawn)
0.0158	9.18	COC(=O)C1=C(C)N=C(C)/C(=C(\O)OC)C1c1ccccc1C#N (stereo not drawn)
0.00646		CCc1ccccc1C1C(C(=O)OC)=C(C)N=C(C)/C1=C(\O)OC (stereo not drawn)
0.0347	8.68	COC(=O)C1=C(C)N=C(C)/C(=C(\O)OC)C1c1cccc(C#N)c1 (stereo not drawn)
0.00151		COC(=O)C1=C(C)N=C(C)/C(=C(\O)OC)C1c1ccccc1C(F)(F)F (stereo not drawn)
100		COC(=O)C1=C(C)NC(C)=C(C(=O)OC)C1c1ccc(N(C)C)cc1
0.00437	10.37	COC(=O)C1=C(C)N=C(C)/C(=C(\O)OC)C1c1c(F)c(F)c(F)c(F)c1F (stereo not drawn)
0.00219	9.78	COC(=O)C1=C(C)N=C(C)/C(=C(\O)OC)C1c1ccccc1Cl (stereo not drawn)
1000		COC(=O)C1=C(C)N=C(C)/C(=C(\O)OC)C1c1cc(OC)c(OC)cc1OC (stereo not drawn)
	8.67	COC(=O)C1=C(C)N=C(C)/C(=C(\O)OC)C1c1cccc(N=[N+]=[N-])c1 (stereo not drawn)
0.0933		COC(=O)C1=C(C)N=C(C)/C(=C(\O)OC)C1c1cc(Cl)cc(Cl)c1 (stereo not drawn)
0.0417		COC(=O)C1=C(C)N=C(C)/C(=C(\O)OC)C1c1cccc(I)c1 (stereo not drawn)
